Substitutions are numbered along the chain they refer to. Read-outs that look alike come from different tables or passages of the source.
Tests used:
[1] = biological target: T1, MGL (Rattus norvegicus, UniProt Q8R431); experiment: 2-AG accumulation assay in rat brain homogenate; type: biochemical; conditions: rat brain homogenate, 2-AG accumulation as percent of vehicle; for 2-AG accumulation, % of vehicle control at 1 µM: compound 1 μM, read-out: Rat Brain 2AG % VehCntrl (%) @ 1 μM
T1 construct: one g rat brain was homogenized using a Polytron homogenizer; from tissue; host or cells: rat brain homogenate
T1 sequence (Q8R431 1-303): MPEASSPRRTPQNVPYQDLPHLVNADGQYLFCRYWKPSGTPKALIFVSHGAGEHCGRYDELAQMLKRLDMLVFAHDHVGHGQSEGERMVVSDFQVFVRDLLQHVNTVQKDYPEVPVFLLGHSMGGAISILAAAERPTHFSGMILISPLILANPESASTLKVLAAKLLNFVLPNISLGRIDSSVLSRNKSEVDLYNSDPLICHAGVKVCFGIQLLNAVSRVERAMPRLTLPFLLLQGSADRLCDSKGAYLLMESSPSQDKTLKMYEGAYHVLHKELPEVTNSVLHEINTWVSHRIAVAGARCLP

[2] = biological target: T2, mutant MGL (Homo sapiens, UniProt Q99685, L169S/L176S); experiment: MGL ThermoFluor assay - mutant; type: binding
T2 sequence (Q99685 1-303 L169S/L176S): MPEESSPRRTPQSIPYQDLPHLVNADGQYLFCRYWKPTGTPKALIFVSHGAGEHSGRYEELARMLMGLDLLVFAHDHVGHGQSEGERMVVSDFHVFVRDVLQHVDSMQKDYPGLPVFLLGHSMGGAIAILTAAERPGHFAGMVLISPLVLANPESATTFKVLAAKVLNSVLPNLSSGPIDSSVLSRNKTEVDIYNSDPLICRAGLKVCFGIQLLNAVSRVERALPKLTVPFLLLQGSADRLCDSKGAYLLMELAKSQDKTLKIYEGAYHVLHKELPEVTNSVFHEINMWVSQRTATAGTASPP

[3] = biological target: T3, purified wild type MGL (wt-MGLL 6H-11-313) (Homo sapiens, UniProt Q99685)
T3 sequence (Q99685 1-303): T2 sequence (Q99685 1-303 L169S/L176S) with S169L, S176L

[4] = ThermoFluor concentration-response, read-out: MGL mutant ThermoFluor Kd
[5] = ThermoFluor thermal stability binding assay, read-out: MGL mutant ThermoFluor Kd
[6] = ThermoFluor, compound concentration measured by qNMR, read-out: MGL mutant ThermoFluor qKd (μM) (using qNMR conc.)
[7] = ThermoFluor, compound concentration measured by qNMR, read-out: MGL mutant ThermoFluor qKd (using qNMR conc.)
[8] = compound concentration measured by qNMR, read-out: MGL mutant ThermoFluor qKd (using qNMR conc.)

Compound | 2-AG accumulation, % of vehicle control at 1 µM [1] [%] | Kd [2, 4] [µM] | IC50 [3] [nM] | Kd [2, 5] [µM] | Kd [2, 6] [µM] | Kd [2, 7] [µM] | Kd [2, 8] [µM] | 2-AG accumulation, % of vehicle control at 0.1 µM ([1]; compound 0.1 μM, read-out: Rat Brain 2AG % VehCntrl (%) @ 0.1 μM) [%]
O=C(c1ccc2c(c1)Sc1ccccc1O2)N1CC(N2CCN(C(=O)c3ccc[nH]3)CC2)C1 [Cpd 678, 1-[1-(Phenoxathiin-2-ylcarbonyl)azetidin-3-yl]-4-(1H-pyrrol-2-ylcarbonyl)piperazine] | 234 | 0.031 | 22 | – | – | – | – | –
O=C(c1ccc2c(c1)CCN(Cc1ccccc1)C2)N1CC(N2CCN(C(=O)c3nccs3)CC2)C1 [Cpd 680, 2-Benzyl-6-({3-[4-(1,3-thiazol-2-ylcarbonyl)piperazin-1-yl]azetidin-1-yl}carbonyl)-1,2,3,4-tetrahydroisoquinoline] | 356 | – | 25 | 0.053 | – | – | – | –
Cn1ccc2cc(C(=O)N3CC(N4CCN(C(=O)c5nccs5)CC4)C3)cc(Br)c21 [Cpd 681] | 406 | – | 27 | – | 0.067 | – | – | –
Cc1c(C(=O)N2CC(N3CCN(C(=O)c4nccs4)CC3)C2)[nH]c2ccc(Br)cc12 [Cpd 682] | 390 | – | 30 | – | – | 0.014 | – | –
O=C(c1ccc(Oc2cccc(Cl)c2)nc1)N1CC(N2CCN(C(=O)c3nccs3)CC2)C1 [Cpd 683] | 335 | 0.039 | 31 | – | – | – | – | –
Cc1c(C(=O)N2CC(N3CCN(C(=O)c4nccs4)CC3)C2)sc2cc(F)ccc12 [Cpd 684] | 645 | – | 31 | 0.004 | – | – | – | –
O=C(c1ccc2c(c1)CCN(C(=O)C1CCC(C(F)(F)F)CC1)C2)N1CC(N2CCN(C(=O)c3nccs3)CC2)C1 (stereo not shown) [Cpd 685] | 756 | – | 33 | 0.067 | – | – | – | –
Cc1c(C(=O)N2CC(N3CCN(C(=O)c4nccs4)CC3)C2)sc2nc(C(F)(F)F)ccc12 [Cpd 686] | 552 | – | 39 | – | 0.002 | – | – | –
CCCn1ccc2cc(C(=O)N3CC(N4CCN(C(=O)c5nccs5)CC4)C3)ccc21 [Cpd 687] | 698 | 0.004 | 44 | – | – | – | – | –
Cc1c(C(=O)N2CC(N3CCN(C(=O)c4nccs4)CC3)C2)[nH]c2ccc(Cl)cc12 [Cpd 688, 5-Chloro-3-methyl-2-({3-[4-(1,3-thiazol-2-ylcarbonyl)piperazin-1-yl]azetidin-1-yl}carbonyl)-1H-indole] | 373 | 0.046 | 44 | – | – | – | – | –
O=C(c1ccc2c(c1)CCN(C(=O)c1ccc[nH]1)C2)N1CC(N2CCN(C(=O)c3nccs3)CC2)C1 [Cpd 690] | 367 | – | 46 | 0.104 | – | – | – | –
Cc1ccc2sc(C(=O)N3CC(N4CCN(C(=O)c5nccs5)CC4)C3)c(C(F)(F)F)c2c1 [Cpd 691, 1-(1-{[5-Methyl-3-(trifluoromethyl)-1-benzothiophen-2-yl]carbonyl}azetidin-3-yl)-4-(1,3-thiazol-2-ylcarbonyl)piperazine] | 840 | 0.004 | 46 | – | – | – | – | –
O=C(c1ccc(OC(F)(F)F)c(Cl)c1)N1CC(N2CCN(C(=O)c3nccs3)CC2)C1 [Cpd 693] | 299 | 0.06 | 47 | – | – | – | – | –
O=C(c1nccs1)N1CCN(C2CN(C(=O)c3sc4cc(F)ccc4c3C3CCC3)C2)CC1 [Cpd 695] | 497 | 0.001 | 57 | – | – | – | – | –
Cc1c(C(=O)N2CC(N3CCN(C(=O)c4nccs4)CC3)C2)n(C)c2ccc(Cl)cc12 [Cpd 696] | 444 | – | 59 | – | – | 0.063 | – | –
O=C(c1cscn1)N1CCN(C2CN(C(=O)c3sc4c(C(F)(F)F)c(F)ccc4c3Cl)C2)CC1 [Cpd 697] | 431 | – | 62 | – | 0.024 | – | – | –
O=C(c1cscn1)N1CCN(C2CN(C(=O)c3sc4cc(Cl)ccc4c3C(F)(F)F)C2)CC1 [Cpd 699] | 253 | 0.041 | 69 | – | – | – | – | –

Compound | 2-AG accumulation, % of vehicle control at 1 µM [1] [%] | Kd [2, 4] [µM] | IC50 [3] [nM] | Kd [2, 5] [µM] | Kd [2, 6] [µM] | Kd [2, 7] [µM] | Kd [2, 8] [µM] | 2-AG accumulation, % of vehicle control at 0.1 µM ([1]; compound 0.1 μM, read-out: Rat Brain 2AG % VehCntrl (%) @ 0.1 μM) [%]
COc1c(C(=O)N2CC(N3CCN(C(=O)c4cscn4)CC3)C2)sc2cc(C(F)(F)F)ccc12 [Cpd 700] | 547 | – | 72 | – | – | – | 0.006 | –
Cn1cc(I)c2ccc(C(=O)N3CC(N4CCN(C(=O)c5nccs5)CC4)C3)cc21 [Cpd 701] | 475 | 0.008 | 77 | – | – | – | – | –
O=C(Nc1ccc(C(=O)N2CC(N3CCN(C(=O)c4nccs4)CC3)C2)cc1)c1cc(F)ccc1Cl [Cpd 702] | 848 | – | 303 | – | – | 0.207 | – | –
O=C(c1ccns1)N1CC(N2CCN(C(=O)c3cc4cc(C(F)(F)F)ccc4s3)CC2)C1 [Cpd 703, 1-[1-(Isothiazol-5-ylcarbonyl)azetidin-3-yl]-4-{[5-(trifluoromethyl)-1-benzothiophen-2-yl]carbonyl}piperazine] | 346 | 0.05 | 88 | – | – | – | – | –
Cc1c(C(=O)N2CCN(C3CN(C(=O)c4cscn4)C3)CC2)sc2cc(C(F)(F)F)ccc12 [Cpd 705] | 487 | 0.012 | 99 | – | – | – | – | –
O=C(c1cscn1)N1CC(N2CCN(C(=O)c3cc4cc(C(F)(F)F)ccc4s3)CC2)C1 [Cpd 716, 1-[1-(1,3-Thiazol-4-ylcarbonyl)azetidin-3-yl]-4-{[5-(trifluoromethyl)-1-benzothiophen-2-yl]carbonyl}piperazine] | 326 | 0.04 | 140 | – | – | – | – | –
O=C(c1ccccc1)N1CCc2cc(C(=O)N3CC(N4CCN(C(=O)c5nccs5)CC4)C3)ccc2C1 [Cpd 736] | 499 | – | 273 | 0.067 | – | – | – | –
O=C(c1cc[nH]c1)N1CC(N2CCN(C(=O)c3cc4cc(C(F)(F)F)ccc4s3)CC2)C1 [Cpd 741, 1-[1-(1H-Pyrrol-3-ylcarbonyl)azetidin-3-yl]-4-{[5-(trifluoromethyl)-1-benzothiophen-2-yl]carbonyl}piperazine] | 182 | 0.2 | 298 | – | – | – | – | –
O=C(c1csnn1)N1CC(N2CCN(C(=O)c3cc4cc(C(F)(F)F)ccc4s3)CC2)C1 [Cpd 753] | 173 | 0.515 | 434 | – | – | – | – | –
O=C(c1ccccc1)N1CCN(C2CN(C(=O)c3ccc(Cc4ccc(C(F)(F)F)cc4)cc3)C2)CC1 [Cpd 771] | 465 | 0.05 | 7 | – | – | – | – | –
O=C(c1ccc(Oc2cccc(Cl)c2)c(F)c1)N1CC(N2CCN(C(=O)c3nccs3)CC2)C1 [Cpd 875] | 499 | 0.01 | < 5 | – | – | – | – | 232
O=C(c1ccc(Oc2ccc(Br)cn2)cc1)N1CC(N2CCN(C(=O)c3nccs3)CC2)C1 [Cpd 877] | 475 | 0.1 | < 5 | – | – | – | – | –
O=C(c1ccc(Oc2cc(C(F)(F)F)ccc2F)nc1)N1CC(N2CCN(C(=O)c3nccs3)CC2)C1 [Cpd 878] | 288 | 0.088 | < 5 | – | – | – | – | –
O=C(c1ccc2c(c1)CCN2Cc1cccc(C(F)(F)F)c1)N1CC(N2CCN(C(=O)c3nccs3)CC2)C1 [Cpd 881] | 847 | 0.006 | < 5 | – | – | – | – | –
O=C(c1ccc2c(c1)CCN2Cc1ccc(C(F)(F)F)cc1)N1CC(N2CCN(C(=O)c3nccs3)CC2)C1 [Cpd 882] | 697 | 0.012 | < 5 | – | – | – | – | –
O=C(c1ccc2c(c1)CCN(c1ccccc1)C2)N1CC(N2CCN(C(=O)c3nccs3)CC2)C1 [Cpd 883] | 767 | – | < 5 | 0.059 | – | – | – | –
O=C(c1ccc2c(c1)CCN2c1ccc(F)cc1)N1CC(N2CCN(C(=O)c3nccs3)CC2)C1 [Cpd 885, 1-(4-Fluorophenyl)-5-({3-[4-(1,3-thiazol-2-ylcarbonyl)piperazin-1-yl]azetidin-1-yl}carbonyl)-2,3-dihydro-1H-indole] | 722 | – | < 5 | – | – | – | 0.001 | –

From US8362000B2, “Azetidinyl diamides as monoacylglycerol lipase inhibitors” (Janssen Pharmaceutica NV, priority 2009, dated 2013)
